The values that follow come from publication PMC7083880 (Nature Communications, 2020).

Assay [1] concerns p53 readthrough protein in Calu-6 cells. The experiment in a line: p53 function: luciferase under promoter with two p53-responsive elements, Calu-6. The assay is classed as cell-based, human. An excerpt: (§1) The three leftmost lanes show twofold serial dilutions of untreated HeLa cell extract. The molecular weight is indicated to the left of each gel. b Schematic representation of the construct used to measure the function of p53. The construct carries a cDNA encoding the firefly luciferase under a promoter having two p53-responsive elements (underlined). […] The level of p21 mRNA is related to the amount of functional p53 protein synthesized in the cell. The results presented in panels b and c are representative of at least two independent experiments., p-values (p) were calculated using Student’s t-test. Source data are provided as a Source Data file.
(§2) Although DAP clearly promoted the synthesis of full-length proteins from UGA-nonsense-mutation-containing mRNAs, it was necessary to ascertain that the readthrough protein was functional. […] The first involved measuring the transcriptional activity of the p53 readthrough protein in Calu-6 cells transfected with an expression vector carrying the cDNA encoding firefly luciferase under the control of a promoter with two p53-responsive elements (Fig. 2b)[33]. Upon DMSO treatment, only basal luciferase activity was detected, reflecting promoter leakage (Fig. 2c). […] The second assay used the p53 target gene p21 (ref. [44]).

The test system of assay [2] is p53 target gene p21 in Calu-6 cells. The experiment in a line: p21 mRNA level by quantitative RT-PCR, Calu-6. The assay is classed as cell-based, human.
Description: as §1, §2
RNA was purified using RNazol (MRC) according to the manufacturer’s instructions. 1/5 of the RNA preparation was used for reverse-transcription (RT) PCR (RT-PCR) using Superscript II (Life Technologies) for 2 h at 42 °C in the presence of random hexamers. The resulting cDNAs were PCR amplified in the presence of dCTP(α^33P) (Perkin Elmer) with the following primers: GAPDH mRNA (sense: 5′-[…]-3′; antisense: 5′-[…]-3′), p53 mRNA (sense: 5′-[…]-3′; antisense: 5′-[…]-3′), p21 mRNA (sense: 5′-[…]-3′; antisense: 5′-[…]-3′). PCR products were quantified with Personal Molecular Imager and QuantityOne quantification software (Bio-Rad).

As for `Nc1nc(N)c2[nH]cnc2n1` [DAP, 2,6-diaminopurine], the “Luciferase activity under p53-responsive promoter, in words” value in assay [1] is listed as “significantly increased”. The “Luciferase activity, p53-responsive promoter construct (DMSO = 1)” value (“Luciferase activity … (DMSO = 1)” for short) was 1.454 in assay [1] (6.25µM, average); 1.606 in assay [1] (6.25µM, experiment 1); 1.415 in assay [1] (6.25µM, experiment 2); 1.341 in assay [1] (6.25µM, experiment 3); 2.545 in assay [1] (25µM, average); 2.235 in assay [1] (25µM, experiment 1). In addition, the “Luciferase activity … (DMSO = 1)” value in assay [1] (25µM, experiment 2) is recorded as 2.893; in assay [1] (25µM, experiment 3), 2.507. In addition, in assay [2], the “Level of endogenous p21 mRNA, in words” value is reported as “increase significantly”. For the same molecule, the “Level of p21 mRNA (DMSO = 1)” value in assay [2] (6.25µM, average) worked out at 1.751; in assay [2] (6.25µM, experiment 1), 2.112; in assay [2] (6.25µM, experiment 2) it was 1.8; in assay [2] (25µM, average), 2.148; in assay [2] (25µM, experiment 1), 1.8674; in assay [2] (25µM, experiment 2) it was 2.071. Also, the “Level of p21 mRNA (DMSO = 1)” value in assay [2] (25µM, experiment 3) came to 2.507.
Regarding `CN[C@@H]1[C@@H](O)[C@@H](O[C@@H]2[C@@H](O)[C@H](O[C@H]3O[C@H]([C@@H](C)O)[C@@H](O)[C@H](O)[C@H]3N)[C@@H](N)C[C@H]2N)OC[C@]1(C)O` [G418, reference compound], the “Luciferase activity under p53-responsive promoter, in words” value in assay [1] was “remained at its background level”. Moreover, the “Luciferase activity … (DMSO = 1)” value is recorded as 1.04 in assay [1] (25µM, average); 1.048 in assay [1] (25µM, experiment 1); 0.7766 in assay [1] (25µM, experiment 2); 1.295 in assay [1] (25µM, experiment 3); 1.017 in assay [1] (600µM, average); 1.299 in assay [1] (600µM, experiment 1). Besides, the “Luciferase activity … (DMSO = 1)” value in assay [1] (600µM, experiment 2) stood at 0.6289; in assay [1] (600µM, experiment 3), 1.121. The “Level of p21 mRNA (DMSO = 1)” value in assay [2] (25µM, average) was 1.18; in assay [2] (25µM, experiment 1), 1.069; in assay [2] (25µM, experiment 2), 1.178; in assay [2] (25µM, experiment 3), 1.295; in assay [2] (600µM, average) it was 1.145; in assay [2] (600µM, experiment 1), 0.7456. Moreover, the “Level of p21 mRNA (DMSO = 1)” value in assay [2] (600µM, experiment 2) came to 1.569; in assay [2] (600µM, experiment 3) it was 1.121.
